Assay results from the supplement of paper PMC13380429.

Key:
Conditions in all cases: 72 h
U2OS [1] = experiment: drug sensitivity score (DSS) for viability; higher = more toxic; extreme values may be limits of the assay
Vero E6 [2] = experiment: as above
Calu-3 [3] = experiment: as above
Caco-2 [4] = experiment: as above
HepG2 [5] = experiment: as above
U2OS [6] = experiment: relative viability EC50 (midpoint between 100% and the lowest measured viability); higher = less toxic
Vero E6 [7] = experiment: as above
HepG2 [8] = experiment: as above
U2OS [9] = experiment: cell viability relative to DMSO; higher = less toxic
Vero E6 [10] = experiment: as above
Calu-3 [11] = experiment: as above
Caco-2 [12] = experiment: as above
HepG2 [13] = experiment: as above
Calu-3 [14] = experiment: relative viability EC50 (midpoint between 100% and the lowest measured viability); higher = less toxic

SMILES | drug sensitivity score (U2OS [1]) | drug sensitivity score (Vero E6 [2]) | drug sensitivity score (Calu-3 [3]) | drug sensitivity score (Caco-2 [4]) | drug sensitivity score (HepG2 [5]) | relative viability EC50 (U2OS [6]) [nM] | relative viability EC50 (Vero E6 [7]) [nM] | relative viability EC50 (HepG2 [8]) [nM] | cell viability (U2OS [9]; 1 nM) [%] | cell viability (U2OS [9]; 10 nM) [%] | cell viability (U2OS [9]; 100 nM) [%] | cell viability (U2OS [9]; 1000 nM) [%] | cell viability (U2OS [9]; 10000 nM) [%] | cell viability (Vero E6 [10]; 1 nM) [%] | cell viability (Vero E6 [10]; 10 nM) [%] | cell viability (Vero E6 [10]; 100 nM) [%] | cell viability (Vero E6 [10]; 1000 nM) [%] | cell viability (Vero E6 [10]; 10000 nM) [%] | cell viability (Calu-3 [11]; 1 nM) [%] | cell viability (Calu-3 [11]; 10 nM) [%] | cell viability (Calu-3 [11]; 100 nM) [%] | cell viability (Calu-3 [11]; 1000 nM) [%] | cell viability (Calu-3 [11]; 10000 nM) [%] | cell viability (Caco-2 [12]; 1 nM) [%] | cell viability (Caco-2 [12]; 10 nM) [%] | cell viability (Caco-2 [12]; 100 nM) [%] | cell viability (Caco-2 [12]; 1000 nM) [%] | cell viability (Caco-2 [12]; 10000 nM) [%] | cell viability (HepG2 [13]; 1 nM) [%] | cell viability (HepG2 [13]; 10 nM) [%] | cell viability (HepG2 [13]; 100 nM) [%] | cell viability (HepG2 [13]; 1000 nM) [%] | cell viability (HepG2 [13]; 10000 nM) [%] | relative viability EC50 (Calu-3 [14]) [nM]
CCCSc1ccc2[nH]c(NC(=O)OC)nc2c1 [albendazole] | 4.9 | 6.5 | 2.4 | 2.8 | 7.8 | 1370 | 1390 | 824 | 101 | 100 | 94.5 | 81.1 | 47.8 | 105 | 95.3 | 104 | 80.1 | 34.6 | 107 | 102 | 111 | 94.7 | 66.4 | 87.7 | 98.6 | 96.9 | 88 | 66.7 | 103 | 97.9 | 85.6 | 68.7 | 33.1 | –
COc1ccc(C(=O)N2CCCC2=O)cc1 [aniracetam] | 0 | 0 | 0 | – | 0 | – | – | – | – | – | – | – | – | – | – | – | – | – | – | – | – | – | – | – | – | – | – | – | – | – | – | – | – | –
CCN1CCN(C(=O)Cc2ccc(Nc3ncc(F)c(Nc4ccc(C(=O)Nc5ccccc5Cl)cc4)n3)cc2)CC1 [aurora-a-inhibitor-i] | 5 | 0.4 | 0.7 | 1.2 | 2.7 | 3090 | > 10000 | – | 100 | 99.8 | 99.2 | 99.1 | 12 | 97 | 106 | 99.6 | 93.4 | 86.8 | 101 | 103 | 109 | 94.8 | 84.5 | 101 | 93.4 | 95.5 | 98 | 74.9 | 91.2 | 90.7 | 89.6 | 93.9 | 64.8 | > 10000
Cn1cnc2c(F)c(Nc3ccc(Br)cc3F)c(C(=O)NOCCO)cc21 [binimetinib] | 4.1 | 11.5 | 14.1 | 8.1 | 23.5 | 2200 | – | 32.3 | 97.9 | 91.4 | 92 | 93.4 | 43.9 | 97.2 | 92.4 | 72.6 | 56.5 | 51.2 | 94.7 | 77.5 | 66.4 | 59.9 | 37.2 | 94 | 87.3 | 77.2 | 73 | 65.6 | 96 | 83.6 | 38 | 23.7 | 20.8 | 78
